Measured values reported in paper PMC6881293, “Nanomolar-potency ‘co-potentiator’ therapy for cystic fibrosis caused by a defined subset of minimal function CFTR mutants” (Scientific Reports, 2019).
One block for each compound: values may come before it.

Tests used:
[1] = molecular target: T1, N1303K-CFTR (Homo sapiens, UniProt P13569, N1303K); set-up: method as in PMID 30046002; details: prior studies; cited from earlier work
T1 construct: expressed in transfected cells

[2] = molecular target: T2, I1234del-CFTR (Homo sapiens, UniProt P13569, DEL1234-1239); test: Short-circuit current in FRT cells expressing I1234del-CFTR; assay type: cell-based; details: I1234del-CFTR FRT cells; 20 µM forskolin, 5 µM VX-770, 20 µM ASP-11; range stated jointly for I1234del- and Q1313X-CFTR
T2 construct: introduced into full-length CFTR cDNA in the vector pcDNA3.1/Zeo (+); expressed in transfected cells
T2 sequence (P13569 with tags, fused parts or gaps DEL1234-1239): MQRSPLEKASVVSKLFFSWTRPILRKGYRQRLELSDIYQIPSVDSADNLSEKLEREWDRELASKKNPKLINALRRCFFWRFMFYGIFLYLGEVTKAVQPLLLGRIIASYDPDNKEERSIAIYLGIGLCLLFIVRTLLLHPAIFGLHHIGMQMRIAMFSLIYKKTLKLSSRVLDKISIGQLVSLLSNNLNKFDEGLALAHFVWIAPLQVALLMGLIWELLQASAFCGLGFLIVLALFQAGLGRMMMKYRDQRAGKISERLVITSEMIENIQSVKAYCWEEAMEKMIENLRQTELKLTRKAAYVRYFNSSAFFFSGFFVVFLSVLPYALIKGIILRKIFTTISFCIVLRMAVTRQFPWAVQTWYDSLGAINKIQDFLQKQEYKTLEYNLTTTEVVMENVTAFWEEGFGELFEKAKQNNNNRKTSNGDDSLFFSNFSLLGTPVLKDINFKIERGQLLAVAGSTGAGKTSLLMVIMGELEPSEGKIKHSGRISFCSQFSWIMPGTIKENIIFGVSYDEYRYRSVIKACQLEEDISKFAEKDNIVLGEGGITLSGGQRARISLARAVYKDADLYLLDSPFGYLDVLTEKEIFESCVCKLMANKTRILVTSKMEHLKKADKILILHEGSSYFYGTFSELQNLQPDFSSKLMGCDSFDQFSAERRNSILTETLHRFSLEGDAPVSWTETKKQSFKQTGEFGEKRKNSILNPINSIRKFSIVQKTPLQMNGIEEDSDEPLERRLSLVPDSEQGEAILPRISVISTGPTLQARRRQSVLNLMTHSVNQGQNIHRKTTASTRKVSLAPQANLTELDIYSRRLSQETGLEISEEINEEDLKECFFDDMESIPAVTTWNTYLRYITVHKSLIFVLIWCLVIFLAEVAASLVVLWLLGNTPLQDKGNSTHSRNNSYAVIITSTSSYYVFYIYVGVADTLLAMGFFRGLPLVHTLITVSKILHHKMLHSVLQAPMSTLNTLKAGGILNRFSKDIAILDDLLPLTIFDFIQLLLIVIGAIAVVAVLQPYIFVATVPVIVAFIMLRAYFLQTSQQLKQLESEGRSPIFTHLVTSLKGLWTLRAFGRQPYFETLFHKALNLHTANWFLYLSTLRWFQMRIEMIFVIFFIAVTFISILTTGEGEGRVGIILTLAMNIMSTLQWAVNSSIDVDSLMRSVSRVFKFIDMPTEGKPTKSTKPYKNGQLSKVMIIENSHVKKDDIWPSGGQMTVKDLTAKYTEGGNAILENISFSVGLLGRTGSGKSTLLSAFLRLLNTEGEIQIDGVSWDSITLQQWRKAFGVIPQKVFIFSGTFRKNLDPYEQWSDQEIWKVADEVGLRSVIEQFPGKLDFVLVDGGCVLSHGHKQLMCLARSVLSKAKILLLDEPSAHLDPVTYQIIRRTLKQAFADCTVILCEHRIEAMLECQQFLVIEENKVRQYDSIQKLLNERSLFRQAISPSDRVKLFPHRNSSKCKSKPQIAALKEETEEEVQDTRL
Description: Figure 1 Co-potentiator ASP-11 activity in minimal function CFTR mutants in transfected FRT cells. (A) Structure of ASP-11. (B) Location of minimal function CFTR mutants studied herein. (C) Representative short-circuit current data in FRT cells expressing I1234del-CFTR, Q1313X-CFTR and S492F-CFTR in response to 20 µM forskolin (fsk), 5 µM VX-770, 20 µM ASP-11 and 10 μM CFTRinh-172. As indicated, cells were treated with 3 µM VX-809 for 18–24 h prior to measurements. (n = 3) (D). Representative short-circuit current data in FRT cells expressing predicted W1282X-CFTR read-through products W1282L-CFTR, W1282R-CFTR and W1282C-CFTR (without and with VX-809 pretreatment) (n = 3). MSD, membrane spanning domain; NBD, nucleotide binding domain; R, regulatory domain.
(§1) As shown in Fig. 1C and summarized in Fig. 2, ASP-11 acted in synergy with VX-770 to increase chloride current in FRT cells expressing the NBD2 mutations I1234del- and Q1313X-CFTR by ~3–9-fold compared to VX-770. I1234del- and Q1313X-CFTR-expressing cells were also treated with VX-809 for 24 hours (to consider the effect of available CFTR therapeutics) with 2–3-fold greater currents observed.
(§2) Short-circuit current was measured on cells cultured on Snapwell clear permeable supports (Corning) as described[10],[11]. […]

[3] = molecular target: T3, R334W-CFTR (Homo sapiens, UniProt P13569, R334W); test: Short-circuit current in FRT cells expressing R334W-CFTR; assay type: cell-based; details: 20 μM forskolin, 5 µM VX-770, 20 µM ASP-11
T3 construct: expressed in transfected cells; host or cells: Fischer rat thyroid (FRT) cells; gift from Drs; Andras Rab and Jeong Hong (Emory University)
T3 sequence (P13569 whole entry R334W): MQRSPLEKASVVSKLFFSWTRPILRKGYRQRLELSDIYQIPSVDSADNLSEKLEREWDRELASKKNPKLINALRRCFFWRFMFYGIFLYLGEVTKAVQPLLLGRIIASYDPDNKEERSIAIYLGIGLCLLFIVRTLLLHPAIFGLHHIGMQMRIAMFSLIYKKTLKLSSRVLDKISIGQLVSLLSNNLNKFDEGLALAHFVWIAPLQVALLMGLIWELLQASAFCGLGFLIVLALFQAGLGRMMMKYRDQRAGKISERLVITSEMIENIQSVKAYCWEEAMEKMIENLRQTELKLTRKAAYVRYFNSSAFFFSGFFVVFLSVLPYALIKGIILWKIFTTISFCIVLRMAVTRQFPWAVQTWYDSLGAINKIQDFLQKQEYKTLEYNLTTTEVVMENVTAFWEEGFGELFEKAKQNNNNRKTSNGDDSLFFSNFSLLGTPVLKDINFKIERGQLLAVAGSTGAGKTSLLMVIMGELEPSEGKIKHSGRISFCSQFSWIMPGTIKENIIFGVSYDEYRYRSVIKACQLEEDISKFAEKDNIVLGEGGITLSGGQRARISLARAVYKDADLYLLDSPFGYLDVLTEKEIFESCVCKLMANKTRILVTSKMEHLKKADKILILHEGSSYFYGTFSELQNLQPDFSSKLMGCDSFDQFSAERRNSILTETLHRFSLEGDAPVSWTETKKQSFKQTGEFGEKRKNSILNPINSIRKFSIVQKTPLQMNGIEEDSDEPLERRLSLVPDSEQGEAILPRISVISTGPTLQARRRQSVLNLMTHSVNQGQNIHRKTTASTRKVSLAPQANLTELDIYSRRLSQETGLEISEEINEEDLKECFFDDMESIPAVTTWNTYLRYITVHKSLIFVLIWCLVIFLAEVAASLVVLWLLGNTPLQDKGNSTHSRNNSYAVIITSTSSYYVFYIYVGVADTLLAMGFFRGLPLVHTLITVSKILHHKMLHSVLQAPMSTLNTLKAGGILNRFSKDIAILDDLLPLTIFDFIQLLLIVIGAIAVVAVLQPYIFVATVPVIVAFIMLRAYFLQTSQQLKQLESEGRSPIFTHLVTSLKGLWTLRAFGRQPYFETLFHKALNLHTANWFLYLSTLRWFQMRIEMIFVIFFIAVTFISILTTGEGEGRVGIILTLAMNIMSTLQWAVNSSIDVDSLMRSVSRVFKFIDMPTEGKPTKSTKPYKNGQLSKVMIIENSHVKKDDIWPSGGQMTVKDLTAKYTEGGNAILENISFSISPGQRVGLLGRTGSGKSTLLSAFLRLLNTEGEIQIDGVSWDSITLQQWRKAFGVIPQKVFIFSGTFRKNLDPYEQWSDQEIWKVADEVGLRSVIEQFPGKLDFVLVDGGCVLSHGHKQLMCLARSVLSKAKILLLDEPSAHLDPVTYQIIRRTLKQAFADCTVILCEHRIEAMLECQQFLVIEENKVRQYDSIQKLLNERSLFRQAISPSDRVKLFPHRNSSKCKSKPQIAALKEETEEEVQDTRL
Description: as §1
(§3) Figure 2 Summary of short-circuit current responses to modulators for CFTR mutants in transfected FRT cells. Responses to indicated CFTR mutants with 20 μM forskolin, 5 µM VX-770, 20 µM ASP-11 (with or without 3 µM VX-809 overnight). For reference, data shown for cells expressing wild type CFTR. Mean ± S.E.M., n = 3.
(§4) Short-circuit current was measured on cells cultured on Snapwell clear permeable supports (Corning) as described[10],[11]. Hemichambers were connected to a DVC-1000 voltage clamp (World Precision Instruments Inc., Sarasota, FL) via Ag/AgCl electrodes and 3 M KCl agar bridges for recording of the short-circuit current. For human airway epithelial cells, symmetrical HCO3^−-buffered solutions (in mM: 120 NaCl, 5 KCl, 1 MgCl2, 1 CaCl2, 5 Hepes, 25 NaHCO3, 10 glucose, pH 7.4) for basolateral and apical side were used. […]

[4] = molecular target: T4, V520F-CFTR (Homo sapiens, UniProt P13569, V520F); test: Short-circuit current in FRT cells expressing V520F-CFTR; assay type: cell-based; details: 20 μM forskolin, 5 µM VX-770, 20 µM ASP-11
T4 construct: expressed in transfected cells; host or cells: Fischer rat thyroid (FRT) cells; gift from Drs; Andras Rab and Jeong Hong (Emory University)
T4 sequence (P13569 whole entry V520F): as the sequence (P13569 whole entry R334W) above, with W334R, V520F counted along it
Description: as §1, §3, §4

[5] = molecular target: T5, R560T-CFTR (Homo sapiens, UniProt P13569, R560T); test: Short-circuit current in FRT cells expressing R560T-CFTR; assay type: cell-based; details: 20 μM forskolin, 5 µM VX-770, 20 µM ASP-11
T5 construct: expressed in transfected cells; host or cells: Fischer rat thyroid (FRT) cells; gift from Drs; Andras Rab and Jeong Hong (Emory University)
T5 sequence (P13569 whole entry R560T): as the sequence (P13569 whole entry R334W) above, with W334R, R560T counted along it
Description: as §1, §3, §4

[6] = molecular target: T6, L1077P-CFTR (Homo sapiens, UniProt P13569, L1077P); test: Short-circuit current in FRT cells expressing L1077P-CFTR; assay type: cell-based; details: 20 μM forskolin, 5 µM VX-770, 20 µM ASP-11
T6 construct: expressed in transfected cells; host or cells: Fischer rat thyroid (FRT) cells; gift from Drs; Andras Rab and Jeong Hong (Emory University)
T6 sequence (P13569 whole entry L1077P): as the sequence (P13569 whole entry R334W) above, with W334R, L1077P counted along it
Description: as §1, §3, §4

[7] = molecular target: T1, N1303K-CFTR; test: Short-circuit current in gene-edited 16HBE14o- cells expressing N1303K-CFTR (16HBE-N1303Kge); assay type: cell-based; details: 16HBE-N1303Kge cells; 20 µM compound after 20 µM forskolin and 5 µM VX-770
Description: (§5) To test the efficacy of new co-potentiators in human airway cell models, short-circuit current was measured in 16HBE14o- human airway epithelial cells in which the endogenous CFTR gene was edited to contain the N1303K mutation (16HBE-N1303Kge[21]) and in primary cultures of human bronchial epithelial cells from a N1303K homozygous CF subject. Addition of forskolin and then VX-770 to 16HBE-N1303Kge cells gave a limited response (Fig. 6A). Subsequent addition of CP-A061 or CP-D123 produced CFTRinh-172-inhibitable responses of ~10 μA/cm^2, ~6-fold greater that that produced by VX-770 alone. Increased short-circuit current was also found for these co-potentiators in the primary human bronchial epithelial cell cultures (Fig. 6B).
(§6) Figure 6 N1303K-CFTR activity in human airway epithelial cell cultures. (A) Short-circuit current in gene-edited 16HBE14o- cells expressing N1303K-CFTR. Concentrations: 20 µM amiloride, 20 µM forskolin, 5 µM VX-770, 20 µM CP-A061 and CP-D123, and 10 µM CFTRinh-172. Representative original curves (left and center) and summary of changes in current (∆Isc) (right). Mean ± S.E.M., n = 3, *P < 0.05). (B) Short-circuit current in primary cultures of human bronchial epithelial cells from a homozygous N1303K-CFTR CF subject. […]
as §2

[8] = molecular target: T1, N1303K-CFTR; test: Short-circuit current in primary human bronchial epithelial cell cultures from a N1303K homozygous CF subject; assay type: cell-based
Description: as §5, §6, §2

T1 sequence (P13569 whole entry N1303K): as the sequence (P13569 whole entry R334W) above, with W334R, N1303K counted along it

SMILES: CC(C)(C)c1cc(C(C)(C)C)c(NC(=O)c2c[nH]c3ccccc3c2=O)cc1O [VX-770, ivacaftor]
- response of N1303K-CFTR to modulator [1]: not responsive

- fold increase in chloride current with ASP-11 plus VX-770 compared to VX-770 alone [2]: 3–9 fold
- ASP-11 effect on short-circuit current [3]: absence of ASP-11 effect
- ASP-11 effect on short-circuit current [4]: absence of ASP-11 effect
- ASP-11 effect on short-circuit current [5]: absence of ASP-11 effect
- ASP-11 effect on short-circuit current [6]: absence of ASP-11 effect
SMILES: CCCCn1cc(S(=O)(=O)Nc2ccc(CC)cc2)c2cccnc21 [ASP-11]

SMILES: COc1ccc2[nH]c3c(c2c1)CCNC31CCN(Cc2ccc(F)cc2F)CC1 [Compound A061]
- CFTRinh-172-inhibitable short-circuit current response [7]: ~ 10 μA/cm^2
- response relative to that produced by VX-770 alone [7]: ~ 6 fold
- current as equivalent of wildtype CFTR activity ([8]; estimate based on similarly cultured non-CF and CF human airway epithelial cell cultures): ~ 20%
- CFTRinh-172-inhibitable current ([8]; primary human bronchial cell cultures, homozygous N1303K-CFTR subject, 20 µM compound after forskolin and 5 µM VX-770): ~ 2.5 μA/cm^2
